# According to paper PMC10914731, “Homo-BacPROTAC-induced degradation of ClpC1 as a strategy against drug-resistant mycobacteria” (Nature Communications, 2024):
# Values joined by “and” are separate entries in the source; they are usually repeats but may differ in a detail not shown here. Identical values can stand only once. Like-named read-outs stand apart in the source and are kept apart here.
# Legend:
# [1] = tested on: M. tuberculosis H37Rv (ATCC 27294); test: microbe, parasite or virus in culture; format: cell-based
# [2] = format: in vitro ADME, Rat; conditions: rat, pH 7.4
# [3] = target: ClpC1 NTD protein (M. tuberculosis) (Mycobacterium tuberculosis, UniProt P9WPC9); test: biochemical; format: binding
# ClpC1 NTD protein (M. tuberculosis), sequence (P9WPC9 1-156, looked up, natural form): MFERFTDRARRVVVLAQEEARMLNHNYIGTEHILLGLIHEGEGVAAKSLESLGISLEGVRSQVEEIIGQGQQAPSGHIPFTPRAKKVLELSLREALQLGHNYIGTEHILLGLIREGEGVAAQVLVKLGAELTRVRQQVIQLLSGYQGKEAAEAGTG
# [4] = target: ClpC1-NTD substrate, M. tuberculosis ClpC1P1P2 (Mycobacterium tuberculosis, UniProt P9WPC9); test: biochemical; format: biochemical; conditions: Mtb
# ClpC1-NTD substrate, M. tuberculosis ClpC1P1P2, sequence (P9WPC5 whole entry): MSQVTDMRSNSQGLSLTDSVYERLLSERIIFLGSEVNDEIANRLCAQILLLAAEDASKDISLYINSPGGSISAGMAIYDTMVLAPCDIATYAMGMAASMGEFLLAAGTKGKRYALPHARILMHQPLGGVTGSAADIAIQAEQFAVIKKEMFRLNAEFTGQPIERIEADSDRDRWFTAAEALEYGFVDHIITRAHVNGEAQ
# ClpC1-NTD substrate, M. tuberculosis ClpC1P1P2, sequence (P9WPC9 whole entry): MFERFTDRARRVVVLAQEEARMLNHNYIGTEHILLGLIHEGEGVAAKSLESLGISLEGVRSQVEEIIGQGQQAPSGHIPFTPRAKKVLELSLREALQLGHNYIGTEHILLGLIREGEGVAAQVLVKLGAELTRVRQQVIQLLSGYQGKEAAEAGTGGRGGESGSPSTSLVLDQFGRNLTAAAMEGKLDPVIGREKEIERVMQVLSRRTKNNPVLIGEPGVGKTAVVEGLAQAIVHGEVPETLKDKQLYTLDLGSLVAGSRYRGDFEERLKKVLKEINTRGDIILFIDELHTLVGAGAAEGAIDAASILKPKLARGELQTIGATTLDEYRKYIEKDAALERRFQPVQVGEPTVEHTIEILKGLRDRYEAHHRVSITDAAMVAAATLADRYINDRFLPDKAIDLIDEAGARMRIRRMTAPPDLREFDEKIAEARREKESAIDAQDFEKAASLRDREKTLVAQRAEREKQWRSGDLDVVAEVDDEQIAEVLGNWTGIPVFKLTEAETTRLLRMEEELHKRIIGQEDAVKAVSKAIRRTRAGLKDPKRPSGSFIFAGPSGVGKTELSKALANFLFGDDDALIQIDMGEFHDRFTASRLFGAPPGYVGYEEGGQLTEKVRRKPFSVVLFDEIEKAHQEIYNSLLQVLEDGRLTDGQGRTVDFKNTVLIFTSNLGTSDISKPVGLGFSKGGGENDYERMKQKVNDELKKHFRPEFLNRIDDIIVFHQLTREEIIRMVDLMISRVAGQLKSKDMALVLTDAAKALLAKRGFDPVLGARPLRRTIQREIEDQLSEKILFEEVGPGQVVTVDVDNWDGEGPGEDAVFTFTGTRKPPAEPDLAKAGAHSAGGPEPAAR
# ClpC1-NTD substrate, M. tuberculosis ClpC1P1P2, sequence (P9WPC3 whole entry, further chain): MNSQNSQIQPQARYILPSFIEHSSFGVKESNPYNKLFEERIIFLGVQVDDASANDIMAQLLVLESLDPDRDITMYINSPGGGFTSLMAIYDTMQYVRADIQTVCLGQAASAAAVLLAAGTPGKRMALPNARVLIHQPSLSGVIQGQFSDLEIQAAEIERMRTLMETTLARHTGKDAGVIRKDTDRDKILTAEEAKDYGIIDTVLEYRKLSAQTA
# [5] = Microsomal stability, human; format: in vitro ADME; conditions: for Microsomal Stability Human: clearance in microsomes
# Outline: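 Metabolic depletion in liver microsomes (0.5 mg/ml, 1 mM NADPH, 37 °C) starting from 1 µmol/l test compound, sampled at multiple times with acetonitrile quench. LC-MS/MS quantitation; half-life converted to %Qh.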
# [6] = tested on: Msm 607; test: microbe, parasite or virus in culture; format: cell-based
# [7] = target: His6-tagged ClpC1-NTD substrate, M. smegmatis ClpC1P1P2 (UniProt A0R574+P9WPC9); test: biochemical; format: biochemical; conditions: Msm
# His6-tagged ClpC1-NTD substrate, M. smegmatis ClpC1P1P2, sequence (P9WPC9 1-156, looked up, natural form): as the sequence (P9WPC9 1-156, looked up, natural form) above
# His6-tagged ClpC1-NTD substrate, M. smegmatis ClpC1P1P2, sequence (A0R574 whole entry): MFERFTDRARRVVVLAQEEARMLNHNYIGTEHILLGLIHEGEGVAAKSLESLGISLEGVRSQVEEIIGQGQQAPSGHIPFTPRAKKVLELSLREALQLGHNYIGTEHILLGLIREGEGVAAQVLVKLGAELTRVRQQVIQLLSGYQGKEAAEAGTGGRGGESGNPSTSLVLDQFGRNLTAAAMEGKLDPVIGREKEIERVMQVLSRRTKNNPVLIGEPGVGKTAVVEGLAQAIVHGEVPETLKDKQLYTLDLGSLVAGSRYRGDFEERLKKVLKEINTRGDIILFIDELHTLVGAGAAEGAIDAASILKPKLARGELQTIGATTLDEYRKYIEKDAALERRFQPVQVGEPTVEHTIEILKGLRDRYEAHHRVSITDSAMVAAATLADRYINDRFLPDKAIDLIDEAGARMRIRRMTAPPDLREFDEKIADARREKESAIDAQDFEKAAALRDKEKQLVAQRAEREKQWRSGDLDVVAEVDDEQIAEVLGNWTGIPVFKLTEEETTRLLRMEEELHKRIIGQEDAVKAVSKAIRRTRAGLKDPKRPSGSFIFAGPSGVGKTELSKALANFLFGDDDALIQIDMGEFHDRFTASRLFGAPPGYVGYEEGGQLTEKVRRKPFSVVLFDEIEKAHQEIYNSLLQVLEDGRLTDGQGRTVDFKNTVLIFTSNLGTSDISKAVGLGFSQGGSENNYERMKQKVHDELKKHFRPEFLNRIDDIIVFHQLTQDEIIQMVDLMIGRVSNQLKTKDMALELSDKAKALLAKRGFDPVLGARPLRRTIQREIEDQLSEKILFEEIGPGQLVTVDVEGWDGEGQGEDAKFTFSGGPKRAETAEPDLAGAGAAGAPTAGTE
# [8] = tested on: Caco-2 monolayers; test: in vitro; conditions: human, Caco-2
# Outline: (§1)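 Values are bidirectional Caco-2 apparent permeabilities, P(A−B) and P(B−A), given in 10^-6 cm s-1. The efflux ratio divides P(B−A) by P(A−B), and intrinsic permeability averages the two directions.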
# [9] = in vitro; conditions: human
# Outline: as §1
# [10] = format: in vitro ADME, Mice; conditions: for Microsomal Stability Mice: clearance in microsomes
# Procedure: (§2) The kinetics of compound degradation in liver microsomes is assessed in an assay with 1 µmol/l of compound and 0.5 mg/ml liver microsomes in a medium of 100 mM Tris-HCl pH 7.5, 6.5 mM MgCl2 and 1 mM NADPH at 37 °C. The reaction is stopped at multiple time points by adding acetonitrile. After centrifugation, the compound concentration is measured in the supernatants by high-performance liquid chromatography (HPLC) tandem mass spectrometry (MS/MS). The results are fitted to a first-order decay and the half-lives are converted to clearance (stated as % of the liver blood flow (%Qh)) using the well-stirred liver model.
# [11] = Hepatocyte stability, mice; format: in vitro ADME; conditions: mouse, pH 7.4
# Outline: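 Clearance, expressed as % of liver blood flow (% Qh), derived from parent-compound half-life by the well-stirred model, with HPLC-MS/MS quantitation after acetonitrile quench. Test compound at 1 µM final added to mouse hepatocyte suspension in 50% serum after 15–30 min acclimation at 37 °C; six samples over up to 6 h.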
# [12] = tested on: Msm 700084; test: microbe, parasite or virus in culture; format: cell-based
# [13] = format: in vitro ADME, Human; conditions: human, pH 7.4
# [14] = format: in vitro ADME, Rat; conditions: for Microsomal Stability Rat: clearance in microsomes
# Procedure: as §2
# [15] = Mycobacterium tuberculosis, Mtb H37Rv (Supplementary Table 2), read-out: MIC Mtb
# [16] = Mycobacterium tuberculosis, single determinations, read-out: Mtb MIC
# [17] = SPR dissociation rate constant, read-out: koff ClpC1-NTD Mean ± SD
# [18] = SPR, single independent measurements
# [19] = SPR, single independent measurements, read-out: koff ClpC1-NTD
# [20] = Measurement 1-4, read-out: 1-Dmax, single measurements
# [21] = mean of the measurements, read-out: 1-Dmax, Mean
# [22] = mean of the measurements, read-out: DC50, Mean
# [23] = Mycolicibacterium smegmatis, 607, read-out: MIC Msm 607
# [24] = Mycolicibacterium smegmatis, 607, read-out: Msm 607 MIC, single determinations
# [25] = Measurement 1-6, read-out: 1-Dmax, single measurements
# [26] = Caco-2, Caco-2 permeability P (A-B)
# [27] = Mycolicibacterium smegmatis, 700084, single determinations, read-out: Msm 700084 MIC
# [28] = Mycolicibacterium smegmatis, 700084, read-out: MIC Msm 700084
Compound,"MIC [1, 15] [µM]","MIC [1, 16] [µM]",Hepatocyte Rat [2] [%Qh],Hepatocyte Stability Rat QH [2] [%],"koff [3, 17] [s⁻¹]","koff ClpC1-NTD [3, 18]","koff [3, 19] [s⁻¹]","1-Dmax, single measurements ([4]; Measurement 1-4)","1-Dmax (percent substrate remaining at maximal degradation) [4, 20] [%]","1-Dmax (percent substrate remaining at maximal degradation) [4, 21] [%]","DC50 [4, 22] [µM]",Microsomal Stability Human QH [5] [%],Microsomal Stability Human [5] [%Qh],"MIC [6, 23] [µM]","MIC [6, 24] [µM]","1-Dmax, single measurements ([7]; Measurement 1-6)","1-Dmax (percent substrate remaining at maximal degradation) [7, 25] [%]","1-Dmax (percent substrate remaining at maximal degradation) [7, 21] [%]","DC50 [7, 22] [µM]",Caco-2 Int. Perm [8],further results
CO[C@H](c1ccccc1)[C@@H]1NC(=O)[C@H](C)NC(=O)[C@H](C[C@@H](C)CO)N(C)C(=O)[C@H](Cc2cn(Cc3cn(CCOCCOCCOCCOCCn4cc(Cn5cc(C[C@H]6C(=O)N(C)[C@@H](C[C@@H](C)CO)C(=O)N[C@@H](C)C(=O)N[C@@H]([C@H](OC)c7ccccc7)C(=O)N[C@@H](C(C)C)C(=O)N(C)[C@@H](CC(C)C)C(=O)N[C@@H](C(C)C)C(=O)N6C)c6ccccc65)nn4)nn3)c3ccccc23)N(C)C(=O)[C@H](C(C)C)NC(=O)[C@H](CC(C)C)N(C)C(=O)[C@H](C(C)C)NC1=O [Compound 27],< 0.1,< 0.1,6,6.192,0.002,2E-3 2E-3 1/s,0.002,70.9% and 71.4% and 79.4%,75.3,74,24.7,>88.400,> 88,1.6,1.56,93.8% and 90.4%,89.3,91,12.5,4.1,"MIC ([1]; Mycobacterium tuberculosis, M. tuberculosis H37Rv strain, read-out: MIC Mtb H37Rv Mean ± SD): < 0.1 µM; MIC ([1]; Mycobacterium tuberculosis, individual measurements (source data), read-out: Mtb MIC): < 0.1 µM; Kd ([3]; SPR, individual measurements (source data), read-out: KD ClpC1-NTD): 0.3 nM and 0.576 nM; Kd ([3]; SPR, read-out: ClpC1-NTD KD Mean ± SD): 0.4 ± 0.2 nM; Papp A→B [9, 26]: < 6.4 ×10⁻⁶ cm/s; Papp B→A ([9]; Caco-2, Caco-2 permeability P (B-A)): < 1.7 ×10⁻⁶ cm/s; Microsomal Stability Mouse QH [10]: 77.100%; Microsomal Stability Mice [10]: 77 %Qh; Hepatocyte Mice [11]: 15 %Qh; MIC [12, 27]: 0.78 µM; MIC [12, 28]: 0.8 µM; Hepatocyte Human [13]: 12 %Qh; Hepatocyte Stability Human QH [13]: 12.386%; Microsomal Stability Rat QH [14]: 41.300%; Microsomal Stability Rat [14]: 41 %Qh"
CO[C@H](c1ccccc1)[C@@H]1NC(=O)[C@H](C)NC(=O)[C@H](C[C@@H](C)CO)N(C)C(=O)[C@H](Cc2cn(Cc3cn(CCCCCn4cc(Cn5cc(C[C@@H]6NC(=O)[C@H](C(C)C)NC(=O)[C@H](CC(C)C)N(C)C(=O)[C@H](C(C)C)NC(=O)[C@H]([C@H](OC)c7ccccc7)NC(=O)[C@H](C)NC(=O)[C@H](C[C@@H](C)CO)N(C)C6=O)c6ccccc65)nn4)nn3)c3ccccc23)NC(=O)[C@H](C(C)C)NC(=O)[C@H](CC(C)C)N(C)C(=O)[C@H](C(C)C)NC1=O [Compound 9],0.3 ± 0.1,0.39,6,6.192,0.0005,0.0005 s⁻¹ and 0.0006 s⁻¹,0.0005,29.9% and 20.5%,27.5,26,6.8,43.3,43,0.8,0.78,54.4% and 51.4%,54.7,54,8,0.1,"MIC ([1]; single determinations, read-out: Mtb MIC): 0.195 µM; Kd ([3]; SPR (Supplementary Table 1), read-out: KD ClpC1-NTD Mean ± SD): 0.6 ± 0.2 nM; Kd ([3]; SPR, single independent measurements, read-out: KD ClpC1-NTD): 0.453 nM and 0.515 nM and 0.745 nM; DC50 ([4]; Measurement 1-4, read-out: DC50, single measurements): 7.2 µM and 8.7 µM and 4.4 µM; DC50 ([7]; Measurement 1-6, read-out: DC50, single measurements): 7.8 µM and 9.2 µM and 6.9 µM; Caco-2 permeability P (B-A) [8]: 0; Papp A→B ([9]; Caco-2, CACO permeability PEAB): < 1.2 ×10⁻⁶ cm/s; Papp B→A ([9]; Caco-2, CACO permeability PEBA): < 0.28 ×10⁻⁶ cm/s; Papp A→B [9, 26]: < 0.2 ×10⁻⁶ cm/s; Microsomal Stability Mouse QH [10]: 24.7%; Microsomal Stability Mice [10]: 25 %Qh; Hepatocyte Mice [11]: 15 %Qh; Hepatocyte Stability Mouse QH [11]: 15.001%; MIC [12, 27]: > 50 µM; MIC [12, 28]: > 50 µM; Hepatocyte Human [13]: 12 %Qh; Hepatocyte Stability Human QH [13]: 12.386%; Microsomal Stability Rat QH [14]: <23.100%; Microsomal Stability Rat [14]: < 23 %Qh"
